Legend:
[1] = test system: MMPs; test: MMP inhibition at trough plasma level in pigs; settings: 20 mg/kg/day oral
[2] = test system: MMP; test: MMP inhibitory activity of plasma from treated pigs, artificial MMP substrate; type: biochemical
Experimental: The MMP inhibitor chosen for these studies was Compound A as above. A single oral dose of 10 mg/kg of Compound A was administered in one pig, and a second pig was simultaneously administered a single 10 mg/kg dose of the MMP inhibitor intravenously. Plasma samples were serially collected from the chronically placed arterial access ports. Plasma levels of the MMP inhibitor were determined by the degree of hydrolysis of the MMP substrate thiopeptolide Ac-Pro-Leu-Gly-thioester-Leu-Leu-Gly=OEt. […] A pharmacokinetic profile was constructed using these initial data, and it was predicted that an oral delivery of 20 mg/kg/day of Compound A would provide significant MMP plasma inhibitory activity at trough levels. Accordingly, the 3 pigs underwent 20 mg/kg QD-AM of treatment with Compound A for 5 days. In order to confirm adequate MMP inhibitory activity, plasma was collected prior to the AM dose with each day of treatment. […] Thus, a practical dosing regiment of Compound A was established which provided stable plasma MMP inhibitory activity in the animal model to be used in the present study.

[3] = test system: MI-rat (coronary artery ligation) heart failure model; test: ischemic model of heart failure (MI-rat), Compound A dose-response; type: in vivo; set-up: LVV at LVEDP: unit not given here; settings: for LVEDP / LVV at LVEDP / dp/dt MAX: 6 weeks
[4] = test system: plasma neurohormones; test: plasma neurohormones with chronic rapid pacing (Table III); type: in vivo, pig; settings: Rapid Pacing + MMPi, 20 mg/kg QD, 3 weeks, mean ± SEM
[5] = in vivo; set-up: species or system Yorkshire pigs; settings: pig, po, 10 mg/kg
Experimental: In a similar study, three Yorkshire pigs (22-25 kg, male, Hambone Farms, S.C.) were chronically instrumented in order to measure arterial blood pressure in the conscious state. The pigs were anesthetized with isoflurane (3%/1.5 L/min) and a mixture of nitrous oxide and oxygen (50:50), intubated with a cuffed endotracheal tube and ventilated at a flow rate of 22 mL/kg/minute, and a respiratory rate of 15/minute. A left thoracotomy was performed, and the thoracic aorta at the location of the hemi-azygous crossover exposed. A catheter connected to a vascular process port (Model GPV, 9F, Access Technologies, Skokie, Ill.) was placed in the aorta and sutured in place. The access port was buried in a subcutaneous pocket over the thoracolumbar fascia. Following a recovery period of 7 to 10 days, the animal was returned to the laboratory for baseline studies. […] The vascular access port was entered using a 12-gauge Huber needle (Access Technologies, Skokie, Ill.) and basal, resting arterial pressure and heart rate were recorded. […]
The MMP inhibitor chosen for these studies was Compound A as above. […] Plasma levels of the MMP inhibitor were determined by the degree of hydrolysis of the MMP substrate thiopeptolide Ac-Pro-Leu-Gly-thioester-Leu-Leu-Gly=OEt. […]

[6] = test system: chronic rapid pacing heart failure model; test: LV geometry, LV function and systemic hemodynamics with chronic rapid pacing (Table III); type: in vivo, pig; settings: Rapid Pacing + MMPi, 20 mg/kg QD, 3 weeks, mean ± SEM
Description: Pacemakers were implanted or sham procedures performed with the animals anesthetized as described in the preceding section. In addition to the placement of the aortic access port, a shielded stimulating electrode was sutured onto the left atrium, connected to a modified programmable pacemaker (8329, Medtronic, Inc., Minneapolis, Minn.), and buried in a subcutaneous pocket. The pericardium was approximated, the thoracotomy closed, and the pleural space evacuated of air. Ten to 14 days following recovery from the surgical procedure, baseline studies were performed, and the protocols described above were begun. Cardiac auscultation and an electrocardiogram were performed frequently during the pacing protocol in order to ensure proper operation of the pacemaker and the presence of 1:1 conduction. In this porcine preparation, atrio-ventricular conduction can be maintained at this pacing rate and therefore provide a homogeneous pattern of ventricular myocardial electrical activation. The sham operated controls were cared for in identical fashion with the exception of the pacing protocol. All animals were treated and cared for in accordance with the National Institutes of Health "Guide for the Care and Use of Laboratory Animals" (National Research Council, Washington, 1996).
LV size and function were measured at weekly intervals in all of the pigs undergoing rapid pacing. For these studies, the animals were brought to the laboratory and the pacemaker deactivated. All measurements were performed at an ambient resting heart rate within 30 to 40 minutes following pacemaker deactivation. Two-dimensional and M-mode echocardiographic studies (ATL Ultramark VI, 2.25 MHz transducer, Bothell, Wash.) were used to image the LV from a right parasternal approach. LV fractional shortening was calculated as ([…])/end-diastolic dimension and was expressed as a percent. Peak circumferential global average wall stress was computed using a spherical model of reference: σ(gm/cm^2)=(PD/4h(1+h/D))×1.36; where P=aortic systolic pressure measured from the access port, D=minor axis dimension at end-diastole, and h=wall thickness. The mean velocity of circumferential fiber shortening (Vcf) was calculated using the LV echocardiographic dimension measurements and the arterial pressure trace. The LV ejection time, used in the calculation of Vcf, was rate-corrected to a heart rate of 60 bpm by […] by the square root of the RR interval.

CC(C)C(NS(=O)(=O)c1ccc(-c2ccc(Br)cc2)cc1)C(=O)O (stereo not shown) [Compound A, 2-(4'-bromobiphenyl-4-sulfonylamino)-3-methylbutyric acid]
inhibition of MMPs at trough level [1]: a level great enough to inhibit all MMPs tested | plasma MMP inhibitory activity ([2]; pig, 20 mg/kg QD for 5 days, pre-dose plasma): significant plasma MMP inhibitory activity was observed | reduction of in vitro MMP activity by plasma ([2]; plasma after 3 days of treatment, 20 mg/kg QD, artificial MMP substrate): over 100% | LVEDP ([3]; 0.005 mg/kg/day in chow): 20 ± 4 mm Hg | LVV at LVEDP ([3]; 0.005 mg/kg/day in chow): 650 ± 96 | dp/dt MAX ([3]; 0.005 mg/kg/day in chow): 5900 ± 474 mm Hg/sec | LVEDP ([3]; 0.05 mg/kg/day in chow): 16 ± 3 mm Hg | LVV at LVEDP ([3]; 0.05 mg/kg/day in chow): 622 ± 72 | dp/dt MAX ([3]; 0.05 mg/kg/day in chow): 6553 ± 331 mm Hg/sec | LVEDP ([3]; 0.5 mg/kg/day in chow): 20 ± 3 mm Hg | LVV at LVEDP ([3]; 0.5 mg/kg/day in chow): 751 ± 65 | dp/dt MAX ([3]; 0.5 mg/kg/day in chow): 5997 ± 351 mm Hg/sec | LVEDP ([3]; 5 mg/kg/day in chow): 16 ± 3 mm Hg | LVV at LVEDP ([3]; 5 mg/kg/day in chow): 647 ± 66 | dp/dt MAX ([3]; 5 mg/kg/day in chow): 6357 mm Hg/sec | LV function as measured by dP/dt MAX ([3]; 3 highest doses): significantly improved LV function | LV dilation ([3]; every dose (0.005-5 mg/kg/day in chow)): significantly reduced LV dilation at every dose | Norepinephrine [4]: 1073 ± 241 pg/mL | Renin Activity [4]: 10.4 ± 1.1 ng/mL/h | bioavailability at 4 h [5]: ~100% | End-Diastolic Dimension [6]: 4.7 ± 0.2 cm | Fractional Shortening [6]: 26 ± 3% | Heart Rate [6]: 149 ± 3 bpm | Mean Arterial Pressure [6]: 83 ± 2 mmHg | Peak Wall Stress [6]: 185 ± 11 g/cm^2 | Vcf (velocity of circumferential fiber shortening) [6]: 1.4 ± 0.2 s⁻¹ | Vcfc (velocity of circumferential fiber shortening corrected for heart rate) [6]: 2.3 ± 0.2 s⁻¹ | Wall Thickness [6]: 0.80 ± 0.22 CM

Reference: patent publication US5948780A, “Method for treating and preventing heart failure and ventricular dilatation” (priority 1997, dated 1999)
